The results in this text go back to ChEMBL document CHEMBL1132044, “Synthesis and in vitro and in vivo evaluation of the 2-(6'methoxy-3',4'-dihydro-1'-naphtyl)-4H-3,1-benzoxazin-4-one as a new potent substrate inhibitor of human leukocyte elastase” (Bioorg Med Chem Lett, 1999).

The first assay concerns the target T1, Neutrophil elastase (Homo sapiens) (UniProt P08246).
T1 sequence (whole entry): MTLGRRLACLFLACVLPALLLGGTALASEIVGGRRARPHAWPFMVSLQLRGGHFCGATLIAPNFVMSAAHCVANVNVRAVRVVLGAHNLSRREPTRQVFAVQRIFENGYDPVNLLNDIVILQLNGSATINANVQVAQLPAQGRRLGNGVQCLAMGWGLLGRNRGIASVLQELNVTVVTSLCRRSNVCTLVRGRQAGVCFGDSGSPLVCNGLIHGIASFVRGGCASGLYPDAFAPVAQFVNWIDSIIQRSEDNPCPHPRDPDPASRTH
Put plainly: In vitro inhibitory activity against human leukocyte elastase (HLE), at a concentration of 1.5 uM.
Consider `CCOC(=O)C1CCC(c2nc3ccccc3c(=O)o2)=CC1C` (centres undefined), for which the inhibition – broadly, the share of the control response that was lost under treatment – was 6%.

As for `COc1ccc2c(c1)CCC=C2c1nc2ccccc2c(=O)o1`, the inhibition is 69.9%.

In turn, `O=c1oc(-c2ccccc2)nc2ccccc12` showed an inhibition of 16.2%.

`O=c1oc(/C2=C/CCCCCC2)nc2ccccc12`: the inhibition was found to be 23%.

Turning to `O=c1oc(-c2ccco2)nc2ccccc12`, the inhibition is 22.6%.

A further assay concerns the target T2, Neutrophil elastase (Homo sapiens, UniProt P08246).
T2 sequence (P08246 whole entry): T1 sequence (whole entry)
The assay is described as follows: In vitro inhibitory activity against human leukocyte elastase (HLE).
Take `COc1ccc2c(c1)CCC=C2c1nc2ccccc2c(=O)o1`: 0.61 µM corresponded to half-maximal inhibition (IC50).

As to `O=c1oc(-c2ccccc2)nc2ccccc12`, the midpoint of inhibition, the IC50, lay at 17 µM.

In the case of `O=c1oc(/C2=C/CCCCCC2)nc2ccccc12`, the 50% inhibitory concentration (IC50) (in general, the concentration at which inhibition is half-maximal) came out at 7 µM.

With `O=c1oc(-c2ccco2)nc2ccccc12`, half-maximal inhibition (IC50) was put at 5.5 µM.

A further assay deals with T1, Neutrophil elastase (Homo sapiens). The assay is described as follows: In vitro inhibitory activity against human leukocyte elastase (HLE), at a concentration of 15 uM.
The compound `CCOC(=O)C1CCC(c2nc3ccccc3c(=O)o2)=CC1C` (centres undefined) had an inhibition of 12%.

`COc1ccc2c(c1)CCC=C2c1nc2ccccc2c(=O)o1` had an inhibition of 92.8%.

For the compound `O=c1oc(-c2ccccc2)nc2ccccc12`, the inhibition worked out at 45.7%.

The compound `O=c1oc(/C2=C/CCCCCC2)nc2ccccc12` registered an inhibition of 64.5%.

Take `O=c1oc(-c2ccco2)nc2ccccc12`: the inhibition was 65%.

For the next assay the target is unchanged. Put plainly: In vitro inhibitory activity against human leukocyte elastase (HLE), at a concentration of 75 uM.
Consider `CCOC(=O)C1CCC(c2nc3ccccc3c(=O)o2)=CC1C` (centres undefined), for which the inhibition is 20.8%.

With `COc1ccc2c(c1)CCC=C2c1nc2ccccc2c(=O)o1`, the inhibition came to 99.6%.

`O=c1oc(-c2ccccc2)nc2ccccc12`: the inhibition came out at 76%.

`O=c1oc(/C2=C/CCCCCC2)nc2ccccc12` gave an inhibition of 87%.

The compound `O=c1oc(-c2ccco2)nc2ccccc12` registered an inhibition of 88.7%.
